From patent US20220313728A1 (priority 2021, published 2022)

Experiments:
[1] = tested on: patients with severe TRMD; assay: Phase 2 double-blind randomized placebo-controlled crossover trial, single 1-hour inhalation; Hamilton Depression Rating Scale (HDRS-21, primary outcome); assay type: in vivo, human; settings: for Estimated difference between 25% and placebo (HDRS-21) / Estimated difference between 50% and placebo (HDRS-21): single 1-hour inhalation; for Difference vs placebo (HDRS-21): 2 weeks, following a single treatment; for Estimated difference between 50% and 25% (HDRS-21): 50% vs 25% nitrous oxide; for Patients in remission (HDRS ≤7 points) / Patients with treatment response (reduction in HDRS-21 points ≥50%): pre-treatment HDRS-21 >19; for Estimated difference between placebo and the combined 25% and 50% groups (HDRS-21): combined 25% and 50% nitrous oxide
Excerpt: (§1) The study was a single-center, double-blind, randomized placebo-controlled crossover trial. All subjects underwent three one-hour inhalation sessions in random order, each separated by at least 4 weeks. The sessions included: placebo (0% N20), 25% N20, and 50% N20 balanced with air/oxygen. Blinding was executed by separating locations and teams for inhalation treatments and psychiatric evaluations. Only the anesthesia team administering the inhalation treatments was aware of study group assignment; all other participants, including patients and raters, were blinded. Likewise, the study setup was identical for all sessions, and gas flow meters were concealed, making inadvertent unblinding unlikely. The study was approved by the Washington University in St. Louis Institutional Review Board, and all patients provided written, informed consent. The trial was registered at clinicaltrials.gov (NCT03283670).
Patients were recruited from an existing database of TRMD patients identified through participation in a secondary referral clinic for TRMD at Washington University Department of Psychiatry, as well as from the “Volunteers for Health” patient pool (individuals with various medical/psychiatric conditions who volunteer to participate in clinical research) within Washington University School of Medicine. […] Patients were instructed to continue their current standard of care MDD treatment and to maintain a stable psychotropic medication dosage or psychotherapy regimen for 4 weeks prior to initiation of the study and throughout the study. Further, patients were instructed not to modify their antidepressant treatments during the three month course of the trial (i.e., discouraged from adding new antidepressants or modifying existing antidepressant dosages).
Following the in-person screen, each of the three treatment sessions consisted of […]: pre-inhalation mood assessment, inhalation, and post-inhalation follow-up sessions at 22-28 hours, 1 week, and 2 weeks. An additional assessment was completed 4 weeks following the final inhalation treatment.
(§2) All three inhalation sessions were scheduled for one hour. […] Except for the choice of inhalational gas admixture, treatment sessions were otherwise identical. The gas mix was administered via a standard anesthesia facemask through tubing connected to the anesthesia machine or an FDA-approved Porter/Praxair MXR breathing circuit. A small sample connector line was inserted into the facemask allowing the measurement of inhaled and exhaled gas concentrations. […] Patients were monitored during and after the treatment according to American Society of Anesthesiologists standards which include continuous 3-lead ECG, pulse oximetry, non-invasive blood pressure, and end tidal CO2 measurement under the supervision of an attending-level anesthesiologist. After the one-hour treatment session, patients were monitored in a recovery room for up to one hour at which time a study team physician determined whether the patient met criteria for discharge.
(§3) Data were collected at (a) baseline (prior to each inhalation session), (b) 2-hours, (c) 24 hours, (d) 1 week, and (e) 2 weeks after inhalation. Efficacy of the inhalation treatment on mood was measured using the following: Hamilton Depression Rating Scale 21-item (HDRS-21; primary outcome); Montgomery-Asberg Depression Rating Scale (MADRS); Quick Inventory of Depressive Symptomology-Self Report (QIDS-SR); and the Profile of Mood States 2nd Edition (POMS-2). Other behavioral assessments included an assessment of dissociation, the Clinical Administered Dissociative States Scale 28-item (CADSS-28); and an assessment for the emergence of psychosis, the Brief Psychiatric Rating Scale 18-item (BPRS-18). These mood and behavioral assessments were performed by a blinded member of the psychiatry study team. Additionally, adequacy of the blind was assessed by a Blinding Questionnaire given after completion of each inhalation session.

[2] = tested on: patients with severe TRMD; assay: Same trial; treatment safety, monitoring of adverse events; settings: for Stomach virus: >24 hours after inhalation session, count (%)
Excerpt: as §1, §2
as §3, with “session. Treatment safety was assessed by monitoring adverse events (AEs) related to (a) cardiovascular status; (b) respiratory function; (c) central nervous system; and (d) psychiatric symptoms, particularly the presence of psychotic symptoms.” for “session.”
Finally, we also tested for a linear dose-response relation. Differences between categorical outcomes (response, remission) were tested by Fisher-Exact test; relative risk and 95% confidence intervals were calculated using the Koopman asymptotic score. Differences in the count of adverse events were compared by the Kruskal-Wallis test. All reported p-values are two-sided and a p-value of <0.05 was considered statistically significant. All analyses were conducted using SuperMix (Scientific Software International, Lincolnwood Ill.).

[3] = tested on: Major Depressive Disorder; settings: 50% nitrous oxide; cited from earlier work
[4] = after 50% nitrous oxide, 5/12 patients

Compound: [N-]=[N+]=O [nitrous oxide]
- Estimated difference between 25% and placebo (HDRS-21) ([1]; 25% nitrous oxide, 2 hours): −0.75 points
- Estimated difference between 25% and placebo (HDRS-21) ([1]; 25% nitrous oxide, 24 hours): −1.41 points
- Estimated difference between 25% and placebo (HDRS-21) ([1]; 25% nitrous oxide, week 1): −4.35 points
- Estimated difference between 25% and placebo (HDRS-21) ([1]; 25% nitrous oxide, week 2): −5.19 points
- Difference vs placebo (HDRS-21) ([1]; 25% nitrous oxide): −5.19 units
- Effect size d, 25% vs placebo (HDRS-21) ([1]; 25% nitrous oxide, 2 hours): 0.16
- Effect size d, 25% vs placebo (HDRS-21) ([1]; 25% nitrous oxide, 24 hours): 0.21
- Effect size d, 25% vs placebo (HDRS-21) ([1]; 25% nitrous oxide, week 1): 0.38
- Effect size d, 25% vs placebo (HDRS-21) ([1]; 25% nitrous oxide, week 2): 0.62
- Estimated difference between 50% and placebo (HDRS-21) ([1]; 50% nitrous oxide, 2 hours): −0.87 points
- Estimated difference between 50% and placebo (HDRS-21) ([1]; 50% nitrous oxide, 24 hours): −1.93 points
- Estimated difference between 50% and placebo (HDRS-21) ([1]; 50% nitrous oxide, week 1): −2.44 points
- Estimated difference between 50% and placebo (HDRS-21) ([1]; 50% nitrous oxide, week 2): −7.00 points
- Difference vs placebo (HDRS-21) ([1]; 50% nitrous oxide): −7.00 HDRS-21 units
- Effect size d, 50% vs placebo (HDRS-21) ([1]; 50% nitrous oxide, 2 hours): 0.29
- Effect size d, 50% vs placebo (HDRS-21) ([1]; 50% nitrous oxide, 24 hours): 0.32
- Effect size d, 50% vs placebo (HDRS-21) ([1]; 50% nitrous oxide, week 1): 0.35
- Effect size d, 50% vs placebo (HDRS-21) ([1]; 50% nitrous oxide, week 2): 0.85
- Estimated difference between 50% and 25% (HDRS-21) ([1]; 2 hours): 0.11 points
- Estimated difference between 50% and 25% (HDRS-21) ([1]; 24 hours): 0.42 points
- Estimated difference between 50% and 25% (HDRS-21) ([1]; week 1): 1.91 points
- Estimated difference between 50% and 25% (HDRS-21) ([1]; week 2): −1.67 points
- Patients in remission (HDRS ≤7 points) ([1]; after 25% nitrous oxide, 2/9 patients): 22.2%
- Patients with treatment response (reduction in HDRS-21 points ≥50%) ([1]; after 25% nitrous oxide, 3/9 patients): 33.3%
- Patients in remission (HDRS ≤7 points) [1, 4]: 41.7%
- Patients with treatment response (reduction in HDRS-21 points ≥50%) [1, 4]: 41.7%
- Estimated difference between placebo and the combined 25% and 50% groups (HDRS-21) ([1]; 2 hours): −0.81 points
- Estimated difference between placebo and the combined 25% and 50% groups (HDRS-21) ([1]; 24 hours): −1.67 points
- Estimated difference between placebo and the combined 25% and 50% groups (HDRS-21) ([1]; week 1): −3.35 points
- Estimated difference between placebo and the combined 25% and 50% groups (HDRS-21) ([1]; week 2): −6.13 points
- Median HDRS-21 score at study completion ([1]; entire 3-month course (25%, 50% nitrous oxide and placebo sessions), completers n=20, baseline median 20.5): 8.5 (IQR 2.0-16.0)
- Median change in HDRS-21 from baseline to study completion ([1]; entire 3-month course (25%, 50% nitrous oxide and placebo sessions), n=20, IQR −3.3 to −14.0): −11.0 points
- Patients in remission at study completion (HRDS≤7 points) ([1]; entire 3-month course, n=20, 8/20): 40%
- Patients with treatment response at study completion (reduction in HRDS-21 points ≥50%) ([1]; entire 3-month course, n=20, 11/20): 55%
- Patients with improvement in depressive symptoms by at least one category at study completion ([1]; entire 3-month course, n=20, 17/20): 85%
- Median reduction of HDRS-21 ([1]; entire 3-month treatment regimen with 2 treatments with nitrous oxide): 11 HDRS-21 points
- Dose-response relation (HDRS-21 decrease) ([1]; week 2): −3.51 per 25% increase in dose
- Stomach virus ([2]; 25% N2O (n = 20)): 0
- Stomach virus ([2]; 50% N2O (n = 23)): 0
- Car Crash (minor) ([2]; human, in vivo): 1 (4%)
- Fainting Spell ([2]; human, in vivo): 1 (4%)
- Haziness ([2]; human, in vivo): 3 (13%)
- Haziness ([2]; human, in vivo, 1 h): 1(5%)
- Serious adverse events ([2]; in vivo): None
- Persistence of efficacy after a single inhalation (case report) [3]: beyond one month
